System: T1, Na+/K+ ATPase (islet homogenate, ob/ob mice)
T1 construct: gene Atp1a1
Settings: read-out: apparent K 0.5; 135 mM Na+, 20 mM K+, Mg2+, pH 7.4, 37 C, 10 min; deoxycholate-treated homogenate; 1 mM ouabain difference

Km: 500 µM
SMILES: Nc1ncnc2c1ncn2[C@@H]1O[C@H](COP(=O)(O)OP(=O)(O)OP(=O)(O)O)[C@@H](O)[C@H]1O [ATP]

From PMC2477761, “D-glucose Stimulates the Na^+/K^+ Pump in Mouse Pancreatic Islet Cells” (International journal of experimental diabetes research, 2000)
